Measurements as given in ChEMBL document CHEMBL4342412, “How To Design Selective Ligands for Highly Conserved Binding Sites: A Case Study Using N-Myristoyltransferases as a Model System” (J Med Chem, 2020).
Calls of active or inactive are those of the source. No cut-off for these calls is given here.

How the values were obtained:
[1] = target: T1, Glycylpeptide N-tetradecanoyltransferase (Leishmania major) (UniProt Q4Q5S8); conditions: 500 uM
T1 sequence (whole entry): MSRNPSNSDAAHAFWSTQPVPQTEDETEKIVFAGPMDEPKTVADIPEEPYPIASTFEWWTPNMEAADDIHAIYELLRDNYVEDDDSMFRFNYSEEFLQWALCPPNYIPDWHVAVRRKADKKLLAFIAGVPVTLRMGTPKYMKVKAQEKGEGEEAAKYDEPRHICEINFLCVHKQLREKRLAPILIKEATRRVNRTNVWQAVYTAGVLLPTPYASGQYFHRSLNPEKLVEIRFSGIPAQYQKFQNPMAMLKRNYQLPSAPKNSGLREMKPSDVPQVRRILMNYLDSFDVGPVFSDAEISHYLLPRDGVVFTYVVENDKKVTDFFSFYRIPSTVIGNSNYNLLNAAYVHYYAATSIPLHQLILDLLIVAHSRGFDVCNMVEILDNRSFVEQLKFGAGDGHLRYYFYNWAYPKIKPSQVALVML

[2] = target: Genome polyprotein (dengue virus type 2) (UniProt P29990); assay: Inhibition of Dengue virus 2 NS2B-NS3 protease at 100 uM
[3] = target: T1, Glycylpeptide N-tetradecanoyltransferase (Leishmania major)
[4] = target: T2, Glycylpeptide N-tetradecanoyltransferase (Leishmania major, UniProt Q4Q5S8)
T2 sequence (Q4Q5S8 whole entry): T1 sequence (whole entry)

[5] = target: T3, Glycylpeptide N-tetradecanoyltransferase 1 (Homo sapiens, UniProt P30419, A452M/L453V/L462V/L495M/N473H/Q496L/R295Q/W297F)
[6] = target: T4, Glycylpeptide N-tetradecanoyltransferase 1 (Homo sapiens, UniProt P30419)
T4 sequence (P30419 whole entry): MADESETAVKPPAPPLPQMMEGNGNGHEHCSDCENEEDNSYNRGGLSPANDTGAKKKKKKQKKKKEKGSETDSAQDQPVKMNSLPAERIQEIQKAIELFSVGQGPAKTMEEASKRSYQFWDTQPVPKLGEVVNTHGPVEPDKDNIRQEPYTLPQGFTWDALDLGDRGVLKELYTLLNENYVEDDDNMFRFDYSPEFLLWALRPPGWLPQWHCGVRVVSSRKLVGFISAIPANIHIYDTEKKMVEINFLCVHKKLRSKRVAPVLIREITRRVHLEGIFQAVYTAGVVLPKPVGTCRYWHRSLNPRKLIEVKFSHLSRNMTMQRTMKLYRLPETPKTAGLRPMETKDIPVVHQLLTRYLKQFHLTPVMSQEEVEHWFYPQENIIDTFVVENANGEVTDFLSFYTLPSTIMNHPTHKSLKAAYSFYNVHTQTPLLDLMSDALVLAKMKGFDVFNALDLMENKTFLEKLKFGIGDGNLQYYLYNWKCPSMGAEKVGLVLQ

[7] = target: T3, Glycylpeptide N-tetradecanoyltransferase 1; conditions: 0.5 h
[8] = target: T5, NMT1 (glycylpeptide N-tetradecanoyltransferase 1) (Homo sapiens, UniProt P30419); conditions: probe GSNKSKPK peptide
T5 sequence (P30419 whole entry): T4 sequence (P30419 whole entry)

[9] = target: Glycylpeptide N-tetradecanoyltransferase (Leishmania major, UniProt Q4Q5S8, H398N); assay: Inhibition of Leishmania major NMT H398N mutant expressed in Escherichia coli Rosetta-2 cells using GSNKSKPK as substrate in presence of MyrCoA after 30 mins by CPM dye based fluorescence assay
[10] = target: Glycylpeptide N-tetradecanoyltransferase (Leishmania major, UniProt Q4Q5S8, L421Q); assay: Inhibition of Leishmania major NMT L421Q mutant expressed in Escherichia coli Rosetta-2 cells using GSNKSKPK as substrate in presence of MyrCoA after 30 mins by CPM dye based fluorescence assay
[11] = target: Glycylpeptide N-tetradecanoyltransferase 1 (Homo sapiens, UniProt P30419, L495M/N473H/Q496L)
[12] = system: human NMT1 versus Leishmania major NMT; assay: in vitro; conditions: human (numerator) and Leishmania major (denominator)
Description: Selectivity index, ratio of Ki for inhibition of N-terminal TEV cleavage site-fused His6 tagged human NMT1 (115 to 496 residues) to Ki for inhibition of N-terminal TEV cleavage site-fused His6 tagged Leishmania major NMT (11 to 421 residues)

Sequence of Glycylpeptide N-tetradecanoyltransferase (Leishmania major, UniProt Q4Q5S8, H398N) (Q4Q5S8 whole entry H398N): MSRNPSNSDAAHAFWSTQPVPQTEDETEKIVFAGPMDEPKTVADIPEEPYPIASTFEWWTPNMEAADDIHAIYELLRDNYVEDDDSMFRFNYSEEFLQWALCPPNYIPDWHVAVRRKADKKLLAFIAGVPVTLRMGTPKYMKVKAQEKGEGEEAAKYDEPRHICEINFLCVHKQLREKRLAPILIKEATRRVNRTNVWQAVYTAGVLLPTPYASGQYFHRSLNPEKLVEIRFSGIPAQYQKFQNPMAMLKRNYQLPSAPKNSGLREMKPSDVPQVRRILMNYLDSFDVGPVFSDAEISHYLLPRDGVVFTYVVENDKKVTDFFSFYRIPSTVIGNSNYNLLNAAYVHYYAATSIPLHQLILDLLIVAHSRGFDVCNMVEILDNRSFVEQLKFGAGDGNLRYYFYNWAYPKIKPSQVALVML
T3 sequence (P30419 whole entry R295Q/W297F/A452M/L453V/L462V/N473H/L495M/Q496L): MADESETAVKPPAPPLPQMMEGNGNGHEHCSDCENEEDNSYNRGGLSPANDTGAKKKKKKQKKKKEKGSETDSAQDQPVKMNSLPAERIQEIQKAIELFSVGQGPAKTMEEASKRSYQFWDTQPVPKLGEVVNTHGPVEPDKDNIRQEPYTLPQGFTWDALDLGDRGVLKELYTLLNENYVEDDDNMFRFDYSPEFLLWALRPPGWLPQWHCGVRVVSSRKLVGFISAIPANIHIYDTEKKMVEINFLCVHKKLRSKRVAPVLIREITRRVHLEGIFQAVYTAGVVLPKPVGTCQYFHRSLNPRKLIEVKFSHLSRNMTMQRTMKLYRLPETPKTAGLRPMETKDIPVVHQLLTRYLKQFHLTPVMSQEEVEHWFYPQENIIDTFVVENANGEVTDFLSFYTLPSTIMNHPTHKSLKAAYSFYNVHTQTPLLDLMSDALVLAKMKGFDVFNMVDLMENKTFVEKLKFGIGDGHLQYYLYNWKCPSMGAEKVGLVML
Sequence of Glycylpeptide N-tetradecanoyltransferase (Leishmania major, UniProt Q4Q5S8, L421Q) (Q4Q5S8 whole entry L421Q): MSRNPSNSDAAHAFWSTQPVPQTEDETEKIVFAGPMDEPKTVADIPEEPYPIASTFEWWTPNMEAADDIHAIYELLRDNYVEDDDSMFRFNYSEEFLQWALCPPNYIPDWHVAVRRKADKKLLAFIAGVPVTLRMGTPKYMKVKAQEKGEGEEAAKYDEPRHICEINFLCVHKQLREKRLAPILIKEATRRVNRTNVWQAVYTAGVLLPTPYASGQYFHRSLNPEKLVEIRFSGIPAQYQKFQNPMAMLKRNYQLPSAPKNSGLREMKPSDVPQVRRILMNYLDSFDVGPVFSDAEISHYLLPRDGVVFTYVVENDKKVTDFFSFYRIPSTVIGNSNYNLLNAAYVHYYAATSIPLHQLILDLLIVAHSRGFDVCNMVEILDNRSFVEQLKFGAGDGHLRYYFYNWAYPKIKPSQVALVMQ
Sequence of Glycylpeptide N-tetradecanoyltransferase 1 (Homo sapiens, UniProt P30419, L495M/N473H/Q496L) (P30419 whole entry N473H/L495M/Q496L): as the sequence (P30419 whole entry R295Q/W297F/A452M/L453V/L462V/N473H/L495M/Q496L) above, with Q295R, F297W, M452A, V453L, V462L counted along it

SMILES	inhibition [1] [%]	inhibition [2]	inhibition [3]	Ki [4] [nM]	Ki [5] [nM]	Ki [6] [nM]	Ki [9] [nM]	Ki [10] [nM]	also measured
COc1cccc(-n2cc(-c3ccnc(NCCC4CCCN4C)n3)cn2)c1 (centres undefined)	97	inactive	Dose-dependent effect	7.3					
COc1ccccc1-n1cc(-c2ccnc(NCCC3CCCN3C)n2)cn1 (centres undefined)	91	inactive	Dose-dependent effect	19.6	16700	> 40			inhibition at 500 µM [7]: 98%; inhibition at 0.5 h, 500 µM [8]: 59%
Cc1nn(C)c(C)c1Cc1nnc(-c2cc(Cl)ccc2OC2CCNCC2)o1				24.8					
O=C(Cc1ccc(F)cc1)Nc1ccc2[nH]cc(C3CCNCC3)c2c1				980			520	2600	
Cc1cncn1C(C)C(=O)NCc1cccnc1C1CCCN(C)CC1 (centres undefined)	90	inactive	Dose-dependent effect	52.3					
Cc1nn(C)c(C)c1N(C)S(=O)(=O)c1c(Cl)cc(CCCN2CCNCC2)cc1Cl				19.8			1.6	2.3	
COc1cccc(Cc2noc(-c3ccccc3OC3CCNCC3)n2)c1				70.8	33	3300			Ki [11]: 2100 nM; selectivity ratio [12]: 47.8
Cc1nn(C)c(C)c1NS(=O)(=O)c1c(Cl)cc(-c2ccnc(N3CCN(C)CC3)c2)cc1Cl				1.4			8.5	6	
Cc1nn(C)c(C)c1N(C)S(=O)(=O)c1c(Cl)cc(CCCN2CCN3CCC[C@@H]3C2)cc1Cl				2			1.3	36.6	
N[C@@H](CC(=O)N1C[C@H](CO)[C@@H](c2ccc(Cl)cc2)C1)Cc1ccc(Cl)cc1				280	29.2	2900			Ki [11]: 420 nM; selectivity ratio [12]: 10.5
